According to ChEMBL document CHEMBL5625248, “Identification of unique indolylcyanoethylenyl sulfonylanilines as novel structural scaffolds of potential antibacterial agents” (Eur J Med Chem, 2023):
In brackets after ≈: the same amount, converted by molar mass.

Key:
Assay type in all cases: functional
Staphylococcus aureus [1] = assay: Antibacterial activity against Staphylococcus aureus ATCC 29213 assessed as inhibition of bacterial growth incubated for 18 hrs by two fold broth microdilution assay
Staphylococcus aureus [2] = assay: Antibacterial activity against Staphylococcus aureus assessed as inhibition of bacterial growth incubated for 18 hrs by two fold broth microdilution assay
Klebsiella pneumoniae = assay: Antibacterial activity against Klebsiella pneumoniae assessed as inhibition of bacterial growth incubated for 18 hrs by two fold broth microdilution assay
Staphylococcus aureus [3] = assay: Antibacterial activity against Staphylococcus aureus ATCC 25923 assessed as inhibition of bacterial growth incubated for 18 hrs by two fold broth microdilution assay
Escherichia coli [4] = assay: Antibacterial activity against Escherichia coli assessed as inhibition of bacterial growth incubated for 18 hrs by two fold broth microdilution assay
Enterococcus faecalis = assay: Antibacterial activity against Enterococcus faecalis assessed as inhibition of bacterial growth incubated for 18 hrs by two fold broth microdilution assay
Escherichia coli [5] = assay: Antibacterial activity against Escherichia coli ATCC 25922 assessed as inhibition of bacterial growth incubated for 18 hrs by two fold broth microdilution assay
Acinetobacter baumannii = assay: Antibacterial activity against Acinetobacter baumannii assessed as inhibition of bacterial growth incubated for 18 hrs by two fold broth microdilution assay
Staphylococcus aureus [6] = assay: Antibacterial activity against methicilin-resistant Staphylococcus aureus N315 assessed as inhibition of bacterial growth incubated for 18 hrs by two fold broth microdilution assay
Pseudomonas aeruginosa [7] = assay: Antibacterial activity against Pseudomonas aeruginosa ATCC 27853 assessed as inhibition of bacterial growth incubated for 18 hrs by two fold broth microdilution assay
Pseudomonas aeruginosa [8] = assay: Antibacterial activity against Pseudomonas aeruginosa assessed as inhibition of bacterial growth incubated for 18 hrs by two fold broth microdilution assay

Compound	MIC (Staphylococcus aureus [1]) [µg/mL]	MIC (Staphylococcus aureus [2]) [µg/mL]	MIC (Klebsiella pneumoniae) [µg/mL]	MIC (Staphylococcus aureus [3]) [µg/mL]	MIC (Escherichia coli [4]) [µg/mL]	MIC (Enterococcus faecalis) [µg/mL]	MIC (Escherichia coli [5]) [µg/mL]	MIC (Acinetobacter baumannii) [µg/mL]	MIC (Staphylococcus aureus [6]) [µg/mL]	MIC (Pseudomonas aeruginosa [7]) [µg/mL]	MIC (Pseudomonas aeruginosa [8]) [µg/mL]
CC(=O)Nc1ccc(S(=O)(=O)/C(C#N)=C/c2c[nH]c3c(C)cccc23)cc1	32 (≈ 84.3 µM)	32 (≈ 84.3 µM)	4 (≈ 10.5 µM)	128 (≈ 337 µM)	4 (≈ 10.5 µM)	32 (≈ 84.3 µM)	4 (≈ 10.5 µM)	16 (≈ 42.2 µM)	64 (≈ 169 µM)	64 (≈ 169 µM)	64 (≈ 169 µM)
CC(=O)Nc1ccc(S(=O)(=O)/C(C#N)=C/c2c[nH]c3cc(F)ccc23)cc1	32 (≈ 83.5 µM)	32 (≈ 83.5 µM)	128 (≈ 334 µM)	128 (≈ 334 µM)	128 (≈ 334 µM)	32 (≈ 83.5 µM)	8 (≈ 20.9 µM)	16 (≈ 41.7 µM)	64 (≈ 167 µM)	8 (≈ 20.9 µM)	64 (≈ 167 µM)
CC(=O)Nc1ccc(S(=O)(=O)/C(C#N)=C/c2cn(Cc3cccc(Cl)c3)c3ccccc23)cc1	8 (≈ 16.3 µM)	64 (≈ 131 µM)	16 (≈ 32.7 µM)	128 (≈ 261 µM)	128 (≈ 261 µM)	256 (≈ 522 µM)	4 (≈ 8.16 µM)	64 (≈ 131 µM)	128 (≈ 261 µM)	64 (≈ 131 µM)	64 (≈ 131 µM)
N#C/C(=C\c1cn(Cc2ccc(F)cc2F)c2ccccc12)S(=O)(=O)c1ccc(N)cc1	8 (≈ 17.8 µM)	32 (≈ 71.2 µM)	4 (≈ 8.9 µM)	64 (≈ 142 µM)	256 (≈ 570 µM)	256 (≈ 570 µM)	64 (≈ 142 µM)	16 (≈ 35.6 µM)	256 (≈ 570 µM)	64 (≈ 142 µM)	64 (≈ 142 µM)
CC(=O)Nc1ccc(S(=O)(=O)/C(C#N)=C/c2cn(Cc3ccccc3F)c3ccccc23)cc1	4 (≈ 8.45 µM)	128 (≈ 270 µM)	256 (≈ 541 µM)	4 (≈ 8.45 µM)	128 (≈ 270 µM)	8 (≈ 16.9 µM)	64 (≈ 135 µM)	16 (≈ 33.8 µM)	256 (≈ 541 µM)	16 (≈ 33.8 µM)	64 (≈ 135 µM)
Cc1cccc2c(/C=C(\C#N)S(=O)(=O)c3ccc(N)cc3)c[nH]c12	32 (≈ 94.8 µM)	256 (≈ 759 µM)	4 (≈ 11.9 µM)	128 (≈ 379 µM)	64 (≈ 190 µM)	256 (≈ 759 µM)	4 (≈ 11.9 µM)	4 (≈ 11.9 µM)	128 (≈ 379 µM)	64 (≈ 190 µM)	64 (≈ 190 µM)
CC(=O)Nc1ccc(S(=O)(=O)/C(C#N)=C/c2cn(CC(=O)N3CCCCC3)c3ccccc23)cc1	128 (≈ 261 µM)	256 (≈ 522 µM)	64 (≈ 130 µM)	2 (≈ 4.08 µM)	128 (≈ 261 µM)	128 (≈ 261 µM)	256 (≈ 522 µM)	64 (≈ 130 µM)	128 (≈ 261 µM)	256 (≈ 522 µM)	8 (≈ 16.3 µM)
CC(C)=CCn1cc(/C=C(\C#N)S(=O)(=O)c2ccc(N)cc2)c2ccccc21	128 (≈ 327 µM)	64 (≈ 163 µM)	8 (≈ 20.4 µM)	16 (≈ 40.9 µM)	8 (≈ 20.4 µM)	128 (≈ 327 µM)	8 (≈ 20.4 µM)	0.5 (≈ 1.28 µM)	32 (≈ 81.7 µM)	8 (≈ 20.4 µM)	2 (≈ 5.11 µM)
N#C/C(=C\c1c[nH]c2ccccc12)S(=O)(=O)c1ccc(N)cc1	32 (≈ 99 µM)	32 (≈ 99 µM)	1 (≈ 3.09 µM)	128 (≈ 396 µM)	2 (≈ 6.18 µM)	32 (≈ 99 µM)	4 (≈ 12.4 µM)	8 (≈ 24.7 µM)	64 (≈ 198 µM)	1 (≈ 3.09 µM)	4 (≈ 12.4 µM)
CC(=O)Nc1ccc(S(=O)(=O)/C(C#N)=C/c2cn(CCN(C)C)c3ccccc23)cc1	2 (≈ 4.58 µM)	128 (≈ 293 µM)	8 (≈ 18.3 µM)	16 (≈ 36.7 µM)	128 (≈ 293 µM)	256 (≈ 586 µM)	64 (≈ 147 µM)	32 (≈ 73.3 µM)	128 (≈ 293 µM)	16 (≈ 36.7 µM)	64 (≈ 147 µM)
CC(=O)Nc1ccc(S(=O)(=O)/C(C#N)=C/c2cn(CC3CCCC3)c3ccccc23)cc1	16 (≈ 35.7 µM)	8 (≈ 17.9 µM)	4 (≈ 8.94 µM)	128 (≈ 286 µM)	256 (≈ 572 µM)	32 (≈ 71.5 µM)	64 (≈ 143 µM)	32 (≈ 71.5 µM)	128 (≈ 286 µM)	16 (≈ 35.7 µM)	64 (≈ 143 µM)
N#C/C(=C\c1cn(CC2CCCCC2)c2ccccc12)S(=O)(=O)c1ccc(N)cc1	2 (≈ 4.77 µM)	16 (≈ 38.1 µM)	4 (≈ 9.53 µM)	2 (≈ 4.77 µM)	4 (≈ 9.53 µM)	8 (≈ 19.1 µM)	2 (≈ 4.77 µM)	32 (≈ 76.3 µM)	1 (≈ 2.38 µM)	2 (≈ 4.77 µM)	4 (≈ 9.53 µM)
CC(=O)Nc1ccc(S(=O)(=O)/C(C#N)=C/c2cn(CC=C(C)C)c3ccccc23)cc1	8 (≈ 18.5 µM)	4 (≈ 9.23 µM)	16 (≈ 36.9 µM)	8 (≈ 18.5 µM)	8 (≈ 18.5 µM)	4 (≈ 9.23 µM)	8 (≈ 18.5 µM)	8 (≈ 18.5 µM)	64 (≈ 148 µM)	8 (≈ 18.5 µM)	64 (≈ 148 µM)
CC(=O)Nc1ccc(S(=O)(=O)/C(C#N)=C/c2cn(C)c3ccccc23)cc1	128 (≈ 337 µM)	128 (≈ 337 µM)	128 (≈ 337 µM)	8 (≈ 21.1 µM)	16 (≈ 42.2 µM)	128 (≈ 337 µM)	0.5 (≈ 1.32 µM)	0.5 (≈ 1.32 µM)	16 (≈ 42.2 µM)	64 (≈ 169 µM)	32 (≈ 84.3 µM)
CCn1cc(/C=C(\C#N)S(=O)(=O)c2ccc(NC(C)=O)cc2)c2ccccc21	4 (≈ 10.2 µM)	128 (≈ 325 µM)	32 (≈ 81.3 µM)	4 (≈ 10.2 µM)	128 (≈ 325 µM)	16 (≈ 40.7 µM)	128 (≈ 325 µM)	64 (≈ 163 µM)	64 (≈ 163 µM)	8 (≈ 20.3 µM)	64 (≈ 163 µM)
CC(=O)Nc1ccc(S(=O)(=O)/C(C#N)=C/c2cn(Cc3ccc([N+](=O)[O-])cc3)c3ccccc23)cc1	2 (≈ 4 µM)	256 (≈ 511 µM)	16 (≈ 32 µM)	256 (≈ 511 µM)	256 (≈ 511 µM)	128 (≈ 256 µM)	64 (≈ 128 µM)	64 (≈ 128 µM)	16 (≈ 32 µM)	256 (≈ 511 µM)	128 (≈ 256 µM)
N#C/C(=C\c1c[nH]c2cc(Br)ccc12)S(=O)(=O)c1ccc(N)cc1	32 (≈ 79.5 µM)	256 (≈ 636 µM)	16 (≈ 39.8 µM)	16 (≈ 39.8 µM)	32 (≈ 79.5 µM)	128 (≈ 318 µM)	128 (≈ 318 µM)	8 (≈ 19.9 µM)	128 (≈ 318 µM)	32 (≈ 79.5 µM)	32 (≈ 79.5 µM)
CC(=O)Nc1ccc(S(=O)(=O)/C(C#N)=C/c2c[nH]c3ccccc23)cc1	8 (≈ 21.9 µM)	256 (≈ 701 µM)	16 (≈ 43.8 µM)	8 (≈ 21.9 µM)	64 (≈ 175 µM)	2 (≈ 5.47 µM)	4 (≈ 10.9 µM)	0.5 (≈ 1.37 µM)	8 (≈ 21.9 µM)	1 (≈ 2.74 µM)	32 (≈ 87.6 µM)
N#C/C(=C\c1c[nH]c2ccc([N+](=O)[O-])cc12)S(=O)(=O)c1ccc(N)cc1	64 (≈ 174 µM)	64 (≈ 174 µM)	4 (≈ 10.9 µM)	128 (≈ 347 µM)	128 (≈ 347 µM)	128 (≈ 347 µM)	8 (≈ 21.7 µM)	64 (≈ 174 µM)	128 (≈ 347 µM)	16 (≈ 43.4 µM)	64 (≈ 174 µM)
CCn1cc(/C=C(\C#N)S(=O)(=O)c2ccc(N)cc2)c2ccccc21	1 (≈ 2.85 µM)	1 (≈ 2.85 µM)	8 (≈ 22.8 µM)	64 (≈ 182 µM)	8 (≈ 22.8 µM)	8 (≈ 22.8 µM)	8 (≈ 22.8 µM)	1 (≈ 2.85 µM)	16 (≈ 45.5 µM)	8 (≈ 22.8 µM)	1 (≈ 2.85 µM)
N#C/C(=C\c1cn(Cc2ccccc2F)c2ccccc12)S(=O)(=O)c1ccc(N)cc1	4 (≈ 9.27 µM)	256 (≈ 593 µM)	128 (≈ 297 µM)	8 (≈ 18.5 µM)	256 (≈ 593 µM)	64 (≈ 148 µM)	8 (≈ 18.5 µM)	256 (≈ 593 µM)	64 (≈ 148 µM)	128 (≈ 297 µM)	64 (≈ 148 µM)
CC(=O)Nc1ccc(S(=O)(=O)/C(C#N)=C/c2cn(CC(=O)N(C(C)C)C(C)C)c3ccccc23)cc1	64 (≈ 126 µM)	32 (≈ 63.2 µM)	32 (≈ 63.2 µM)	32 (≈ 63.2 µM)	64 (≈ 126 µM)	64 (≈ 126 µM)	64 (≈ 126 µM)	32 (≈ 63.2 µM)	64 (≈ 126 µM)	64 (≈ 126 µM)	64 (≈ 126 µM)
CCCCCn1cc(/C=C(\C#N)S(=O)(=O)c2ccc(N)cc2)c2ccccc21	16 (≈ 40.7 µM)	256 (≈ 651 µM)	8 (≈ 20.3 µM)	128 (≈ 325 µM)	8 (≈ 20.3 µM)	128 (≈ 325 µM)	16 (≈ 40.7 µM)	32 (≈ 81.3 µM)	256 (≈ 651 µM)	64 (≈ 163 µM)	64 (≈ 163 µM)
N#C/C(=C\c1c[nH]c2cc(F)ccc12)S(=O)(=O)c1ccc(N)cc1	128 (≈ 375 µM)	4 (≈ 11.7 µM)	64 (≈ 187 µM)	4 (≈ 11.7 µM)	256 (≈ 750 µM)	8 (≈ 23.4 µM)	8 (≈ 23.4 µM)	8 (≈ 23.4 µM)	16 (≈ 46.9 µM)	8 (≈ 23.4 µM)	4 (≈ 11.7 µM)
C=CCn1cc(/C=C(\C#N)S(=O)(=O)c2ccc(N)cc2)c2ccccc21	4 (≈ 11 µM)	64 (≈ 176 µM)	8 (≈ 22 µM)	4 (≈ 11 µM)	8 (≈ 22 µM)	8 (≈ 22 µM)	16 (≈ 44 µM)	64 (≈ 176 µM)	32 (≈ 88 µM)	8 (≈ 22 µM)	64 (≈ 176 µM)
CCCCCCn1cc(/C=C(\C#N)S(=O)(=O)c2ccc(NC(C)=O)cc2)c2ccccc21	1 (≈ 2.22 µM)	256 (≈ 569 µM)	256 (≈ 569 µM)	4 (≈ 8.9 µM)	8 (≈ 17.8 µM)	4 (≈ 8.9 µM)	8 (≈ 17.8 µM)	8 (≈ 17.8 µM)	32 (≈ 71.2 µM)	8 (≈ 17.8 µM)	4 (≈ 8.9 µM)
